Measurements as given in paper PMC6941172 (Journal of medicinal chemistry, 2018).

Columns and labels:
GABAAR α6β3γ2 subtype = GABAAR α6β3γ2 subtype (Rattus norvegicus, UniProt P18508+P30191+P63079); conditions: at 10 μM; cited from earlier work
Muscarinic M4 = target: T1, Muscarinic M4 (Homo sapiens, UniProt P08173); assay type: binding
T1 sequence (P08173 1-479): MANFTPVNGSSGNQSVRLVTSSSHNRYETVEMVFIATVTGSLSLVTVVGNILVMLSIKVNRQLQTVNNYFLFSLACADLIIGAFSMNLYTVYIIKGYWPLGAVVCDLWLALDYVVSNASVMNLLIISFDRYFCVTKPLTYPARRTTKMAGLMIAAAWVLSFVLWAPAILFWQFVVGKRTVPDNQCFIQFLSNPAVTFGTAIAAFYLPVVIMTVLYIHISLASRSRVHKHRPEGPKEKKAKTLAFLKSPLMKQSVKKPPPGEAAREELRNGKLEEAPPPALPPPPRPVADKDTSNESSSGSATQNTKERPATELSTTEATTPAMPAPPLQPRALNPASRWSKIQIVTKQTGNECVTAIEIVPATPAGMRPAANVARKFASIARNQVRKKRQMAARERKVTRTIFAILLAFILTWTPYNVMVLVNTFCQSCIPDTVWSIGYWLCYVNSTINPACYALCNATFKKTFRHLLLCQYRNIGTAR

[1] = Microsomal stability assay, mouse liver microsomes; assay type: in vitro ADME; conditions: vs respective parent (8a, 8i, 8n or 8k)
Solubility assay = assay type: physicochemical; conditions: vs parent ligand 8a

Chain of GABAAR α6β3γ2 subtype (P30191 20-453): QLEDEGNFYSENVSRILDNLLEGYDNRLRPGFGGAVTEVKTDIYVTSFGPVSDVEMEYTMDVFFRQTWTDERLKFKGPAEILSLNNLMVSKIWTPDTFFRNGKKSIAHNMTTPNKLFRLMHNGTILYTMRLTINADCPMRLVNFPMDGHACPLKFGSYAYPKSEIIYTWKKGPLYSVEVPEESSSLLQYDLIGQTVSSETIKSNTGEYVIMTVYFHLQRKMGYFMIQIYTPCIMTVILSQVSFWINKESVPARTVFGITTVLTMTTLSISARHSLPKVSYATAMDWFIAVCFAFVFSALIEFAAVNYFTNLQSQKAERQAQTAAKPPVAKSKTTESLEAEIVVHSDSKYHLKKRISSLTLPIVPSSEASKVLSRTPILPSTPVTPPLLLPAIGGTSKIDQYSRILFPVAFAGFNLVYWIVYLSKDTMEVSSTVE
Chain of GABAAR α6β3γ2 subtype (P63079 26-473): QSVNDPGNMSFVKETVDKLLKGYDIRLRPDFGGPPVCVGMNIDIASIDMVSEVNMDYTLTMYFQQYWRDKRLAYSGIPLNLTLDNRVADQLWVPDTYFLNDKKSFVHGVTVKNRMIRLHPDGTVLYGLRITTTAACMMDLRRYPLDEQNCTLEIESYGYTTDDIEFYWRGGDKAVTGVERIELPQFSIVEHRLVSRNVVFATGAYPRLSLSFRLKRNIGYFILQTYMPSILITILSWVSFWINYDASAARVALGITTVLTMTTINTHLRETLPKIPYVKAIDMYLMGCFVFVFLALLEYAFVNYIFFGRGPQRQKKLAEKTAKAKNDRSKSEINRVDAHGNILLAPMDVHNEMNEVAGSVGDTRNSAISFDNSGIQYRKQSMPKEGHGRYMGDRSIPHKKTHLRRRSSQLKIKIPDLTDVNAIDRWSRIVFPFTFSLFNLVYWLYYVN
Chain of GABAAR α6β3γ2 subtype (P18508 39-466): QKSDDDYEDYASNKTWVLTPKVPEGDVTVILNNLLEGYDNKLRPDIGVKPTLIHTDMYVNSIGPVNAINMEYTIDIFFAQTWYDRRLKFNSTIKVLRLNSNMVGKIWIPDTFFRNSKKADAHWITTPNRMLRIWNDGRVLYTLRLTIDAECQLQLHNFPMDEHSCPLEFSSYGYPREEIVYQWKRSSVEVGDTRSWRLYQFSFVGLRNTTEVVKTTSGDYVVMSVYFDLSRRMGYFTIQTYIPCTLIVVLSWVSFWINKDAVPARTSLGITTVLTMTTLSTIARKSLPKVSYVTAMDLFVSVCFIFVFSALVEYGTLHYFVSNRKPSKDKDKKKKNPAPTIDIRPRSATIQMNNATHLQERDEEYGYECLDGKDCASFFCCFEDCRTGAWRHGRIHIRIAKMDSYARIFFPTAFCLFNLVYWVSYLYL

COc1ccc(-n2nc3c4cc(Cl)ccc4[nH]cc-3c2=O)cc1 [Compound 8k, 8-Chloro-2-(4-methoxyphenyl)-2,5-dihydro-3H-pyrazolo[4,3-c]quinolin-3-one]
α6β3γ2 efficacy relative to 8a and 8n (GABAAR α6β3γ2 subtype): three times higher

COc1ccc2c3nn(-c4ccc(OC)nc4)c(=O)c-3c[nH]c2c1 [Compound 13a, 7-Methoxy-2-(6-methoxypyridin-3-yl)-2,5-dihydro-3H-pyrazolo[4,3-c]quinolin-3-one]
Activity at Muscarinic M4 (Muscarinic M4): showed activity
Increase in half-life (MLM) relative to parent ligand [1]: slightly decreased half-life
Increase in water solubility (Solubility assay): about 3 fold
